The text below walks through data of patent publication US20250034135A1, “ANTI-APOPTOTIC PROTEIN BCL-2 INHIBITOR, PHARMACEUTICAL COMPOSITION AND USES THEREOF” (HANGZHOU HEALZEN THERAPEUTICS CO., LTD., priority 2021, published 2025).

The target of this test is BCL2 (Homo sapiens (Human), UniProt P10415). The experiment in a line: Molecular level activity test of anti-apoptotic protein BCL2 (HTRF, binding to Bim peptide). The following applies: HTRF, binding of BCL2 to Bim peptide; read-out: BCL2 nM (inhibitory activity, IC50). How it is done: The detection of the binding ability between anti-apoptotic protein BCL2 and pro-apoptotic protein Bim was performed using Homogeneous Time-Resolved Fluorescence technology. The reaction of this method occurred in a white shallow 384-well plate, with a total reaction volume of 10 μL. Specifically, it included 2 μL of the compound to be tested (2% DMSO), 4 μL His-tagged recombinant protein, and 4 μL Biotin-tagged BIM protein peptide. After 1 hour of reaction, 5 μL of each Anti-His and streptavidin-tagged XL665 antibody diluents diluted with a detection buffer were added. After incubating at room temperature for 4 hours, the values were read using the Envision multifunctional microplate reader to detect the effect of the compound to be tested on the binding ability of BCL2 to Bim protein peptides.
Sequence of BCL2 (P10415 whole entry): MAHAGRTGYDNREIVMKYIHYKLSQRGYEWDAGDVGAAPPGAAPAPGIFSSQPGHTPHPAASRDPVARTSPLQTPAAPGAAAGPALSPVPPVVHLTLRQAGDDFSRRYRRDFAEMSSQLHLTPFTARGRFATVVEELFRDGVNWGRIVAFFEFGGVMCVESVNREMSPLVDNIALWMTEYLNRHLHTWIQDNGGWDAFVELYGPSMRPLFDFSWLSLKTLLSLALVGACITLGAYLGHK
The IC50 is the concentration needed to halve the response being measured. Consider `COc1ccc(CN2CCN(C3CC4(CCN(c5cc(Oc6cnc7[nH]ccc7c6)c(C(=O)NS(=O)(=O)c6cc([N+](=O)[O-])c(NCC7(F)CCOCC7)c7c6ncc(=O)n7C)cc5F)CC4)C3)[C@H](c3ccccc3C(C)C)C2)cc1`, for which the concentration for half-maximal inhibition (IC50) was less than 10 nM.

As to `CC(C)c1ccccc1[C@@H]1CCCN1C1CC2(CCN(c3ccc(C(=O)NS(=O)(=O)c4cc([N+](=O)[O-])c(NC[C@H]5CC[C@](C)(O)CC5)c5[nH]ccc45)c(Oc4cnc5[nH]ccc5c4)c3)CC2)C1` [compound 009, 2-((1H-pyrrolo[2,3-b]pyrid-5-yl)oxy)-N-((7-((((1r,4r)-4-hydroxy-4-methylcyclohexyl)methyl)amino)-6-nitro-1H-indol-4-yl)sulfonyl)-4-(2-((S)-2-(2-isopropylphenyl)pyrrolidin-1-yl)-7-azaspiro[3.5]non-7-yl)benzamide], the half-maximal inhibitory concentration (IC50) is less than 10 nM.

`CC(C)c1ccccc1[C@@H]1CCCN1C1CC2(CCN(c3ccc(C(=O)NS(=O)(=O)c4cc([N+](=O)[O-])c(NCC5(F)CCN(C(C)C)CC5)c5[nH]ccc45)c(Oc4cnc5[nH]ccc5c4)c3)CC2)C1` [compound 010, (S)-2-((1H-pyrrolo[2,3-b]pyrid-5-yl)oxy)-N-((7-(((4-fluoro-1-isopropylpiperid-4-yl)methyl)amino)-6-nitro-1H-indol-4-yl)sulfonyl)-4-(2-(2-(2-isopropylphenyl)pyrrolidin-1-yl)-7-azaspiro[3.5]non-7-yl)benzamide]: the IC50 is less than 10 nM.

As for `CC(C)c1ccccc1[C@@H]1CCCN1C1CC2(CCN(c3ccc(C(=O)NS(=O)(=O)c4cc([N+](=O)[O-])c(NC[C@H]5CC[C@](C)(O)CC5)c5[nH]cnc45)c(Oc4cnc5[nH]cc(F)c5c4)c3)CC2)C1` [compound 011, 2-((3-fluoro-1H-pyrrolo[2,3-b]pyrid-5-yl)oxy)-N-((7-((((1r,4r)-4-hydroxy-4-methylcyclohexyl)methyl)amino)-6-nitro-1H-benzo[d]imidazol-4-yl)sulfonyl)-4-(2-((S)-2-(2-isopropylphenyl)pyrrolidin-1-yl)-7-azaspiro[3.5]non-7-yl)benzamide], the concentration for half-maximal inhibition (IC50) is less than 10 nM.

On to `CC(C)c1ccccc1[C@@H]1CCCN1C1CC2(CCN(c3cc(Oc4cnc5[nH]ccc5c4)c(C(=O)NS(=O)(=O)c4cc([N+](=O)[O-])c(NC[C@H]5CC[C@](C)(O)CC5)c5[nH]cnc45)cc3F)CC2)C1` [compound 014, 2-((1H-pyrrolo[2,3-b]pyrid-5-yl)oxy)-5-fluoro-N-((7-((((1r,4r)-4-hydroxy-4-methylcyclohexyl)methyl)amino)-6-nitro-1H-benzo[d]imidazol-4-yl)sulfonyl)-4-(2-((S)-2-(2-isopropylphenyl)pyrrolidin-1-yl)-7-azaspiro[3.5]non-7-yl)benzamide], for which the 50% inhibitory concentration (IC50) was less than 10 nM.

For `CC(C)c1ccccc1[C@@H]1CCCN1C1CC2(CCN(c3cc(Oc4cnc5[nH]ccc5c4)c(C(=O)NS(=O)(=O)c4cc([N+](=O)[O-])c(NCC5CCC(O)CC5)c5[nH]cnc45)cc3F)CC2)C1` (stereo partly drawn) [compound 016], the IC50 is less than 10 nM.

In the case of `CC(C)c1ccccc1[C@@H]1CCCN1C1CC2(CCN(c3cc(Oc4cnc5[nH]ccc5c4)c(C(=O)NS(=O)(=O)c4cc([N+](=O)[O-])c(NC[C@H]5C[C@@](C)(O)C5)c5[nH]cnc45)cn3)CC2)C1` [compound 017, 4-((1H-pyrrolo[2,3-b]pyrid-5-yl)oxy)-N-((7-((((1S,3S)-3-hydroxy-3-methylcyclobutyl)methyl)amino)-6-nitro-1H-benzo[d]imidazol-4-yl)sulfonyl)-6-(2-((S)-2-(2-isopropylphenyl)pyrrolidin-1-yl)-7-azaspiro[3.5]non-7-yl) nicotinamide], the IC50 is less than 10 nM.

As to `CC(C)c1ccccc1[C@@H]1CCCN1C1CC2(CCN(c3cc(Oc4cnc5[nH]ccc5c4)c(C(=O)NS(=O)(=O)c4cc([N+](=O)[O-])c(NC[C@H]5C[C@@](C)(O)C5)c5[nH]cnc45)cc3F)CC2)C1` [compound 018, 2-((1H-pyrrolo[2,3-b]pyrid-5-yl)oxy)-5-fluoro-N-((7-((((1S,3S)-3-hydroxy-3-methylcyclobutyl)methyl)amino)-6-nitro-1H-benzo[d]imidazol-4-yl)sulfonyl)-4-(2-((S)-2-(2-isopropylphenyl)pyrrolidin-1-yl)-7-azaspiro[3.5]non-7-yl)benzamide], the IC50 was less than 10 nM.

`CC(C)c1ccccc1[C@@H]1CCCN1C1CC2(CCN(c3cc(Oc4cnc5[nH]ccc5c4)c(C(=O)NS(=O)(=O)c4cc([N+](=O)[O-])c(NCC5(F)CCN(C(C)C)CC5)c5[nH]cnc45)cn3)CC2)C1` [compound 021, (S)-4-((1H-pyrrolo[2,3-b]pyrid-5-yl)oxy)-N-((7-(((4-fluoro-1-isopropylpiperid-4-yl)methyl)amino)-6-nitro-1H-benzo[d]imidazol-4-yl)sulfonyl)-6-(2-(2-(2-isopropylphenyl)pyrrolidin-1-yl)-7-azaspiro[3.5]non-7-yl) nicotinamide]: the IC50 was less than 10 nM.

On to `CC(C)c1ccccc1[C@@H]1CCCN1C1CC2(CCN(c3cc(Oc4cnc5[nH]ccc5c4)c(C(=O)NS(=O)(=O)c4cc([N+](=O)[O-])c(NCC5(F)CCN(C(C)C)CC5)c5[nH]cnc45)cc3F)CC2)C1` [compound 022, (S)-2-((1H-pyrrolo[2,3-b]pyrid-5-yl)oxy)-5-fluoro-N-((7-(((4-fluoro-1-isopropylpiperid-4-yl)methyl)amino)-6-nitro-1H-benzo[d]imidazol-4-yl)sulfonyl)-4-(2-(2-(2-isopropylphenyl)pyrrolidin-1-yl)-7-azaspiro[3.5]non-7-yl)benzamide], for which the IC50 is less than 10 nM.

Regarding `CC(C)c1ccccc1[C@@H]1CCCN1C1CC2(CCN(c3cc(Oc4cnc5[nH]ccc5c4)c(C(=O)NS(=O)(=O)c4cc([N+](=O)[O-])c(NCC5(F)CCN(C6CCOCC6)CC5)c5[nH]cnc45)cn3)CC2)C1` [compound 023], the concentration for half-maximal inhibition (IC50) is less than 10 nM.

Turning to `CC(C)c1ccccc1[C@@H]1CCCN1C1CC2(CCN(c3cc(Oc4cnc5[nH]ccc5c4)c(C(=O)NS(=O)(=O)c4cc([N+](=O)[O-])c(NCC5(F)CCN(C6CCOCC6)CC5)c5[nH]cnc45)cc3F)CC2)C1` [compound 024, (S)-2-((1H-pyrrolo[2,3-b]pyrid-5-yl)oxy)-5-fluoro-N-((7-(((4-fluoro-1-(tetrahydro-2H-pyran-4-yl)piperid-4-yl)methyl)amino)-6-nitro-1H-benzo[d]imidazol-4-yl)sulfonyl)-4-(2-(2-(2-isopropylphenyl)pyrrolidin-1-yl)-7-azaspiro[3.5]non-7-yl)benzamide], the IC50 is less than 10 nM.

For the compound `CC(C)c1ccccc1[C@@H]1CCCN1C1CC2(CCN(c3cc(Oc4cnc5[nH]ccc5c4)c(C(=O)NS(=O)(=O)c4cc([N+](=O)[O-])c(NCC5(F)CCN(CC(C)(C)C)CC5)c5[nH]cnc45)cn3)CC2)C1` [compound 025, (S)-4-((1H-pyrrolo[2,3-b]pyrid-5-yl)oxy)-N-((7-(((4-fluoro-1-neopentylpiperid-4-yl)methyl)amino)-6-nitro-1H-benzo[d]imidazol-4-yl)sulfonyl)-6-(2-(2-(2-isopropylphenyl)pyrrolidin-1-yl)-7-azaspiro[3.5]non-7-yl) nicotinamide], the IC50 is less than 10 nM.

Regarding `CC(C)c1ccccc1[C@@H]1CCCN1C1CC2(CCN(c3cc(Oc4cnc5[nH]ccc5c4)c(C(=O)NS(=O)(=O)c4cc([N+](=O)[O-])c(NCC5(F)CCN(CC(C)(C)C)CC5)c5[nH]cnc45)cc3F)CC2)C1` [compound 026], the IC50 was less than 10 nM.

Regarding `CC(=O)N1CCC(F)(CNc2c([N+](=O)[O-])cc(S(=O)(=O)NC(=O)c3cnc(N4CCC5(CC4)CC(N4CCC[C@H]4c4ccccc4C(C)C)C5)cc3Oc3cnc4[nH]ccc4c3)c3nc[nH]c23)CC1` [compound 027, (S)-4-((1H-pyrrolo[2,3-b]pyrid-5-yl)oxy)-N-((7-(((1-acetyl-4-fluoropiperid-4-yl)methyl)amino)-6-nitro-1H-benzo[d]imidazol-4-yl)sulfonyl)-6-(2-(2-(2-isopropylphenyl)pyrrolidin-1-yl)-7-azaspiro[3.5]non-7-yl) nicotinamide], the IC50 was less than 10 nM.

On to `CC(=O)N1CCC(F)(CNc2c([N+](=O)[O-])cc(S(=O)(=O)NC(=O)c3cc(F)c(N4CCC5(CC4)CC(N4CCC[C@H]4c4ccccc4C(C)C)C5)cc3Oc3cnc4[nH]ccc4c3)c3nc[nH]c23)CC1` [compound 028, (S)-2-((1H-pyrrolo[2,3-b]pyrid-5-yl)oxy)-N-((7-(((1-acetyl-4-fluoropiperid-4-yl)methyl)amino)-6-nitro-1H-benzo[d]imidazol-4-yl)sulfonyl)-5-fluoro-4-(2-(2-(2-isopropylphenyl)pyrrolidin-1-yl)-7-azaspiro[3.5]non-7-yl)benzamide], for which the IC50 is less than 10 nM.

As to `CC(C)c1ccccc1[C@@H]1CCCN1C1CC2(CCN(c3cc(Oc4cnc5[nH]ccc5c4)c(C(=O)NS(=O)(=O)c4cc([N+](=O)[O-])c(NCC5(F)CCN(C(=O)CN(C)C)CC5)c5[nH]cnc45)cn3)CC2)C1` [compound 029, (S)-4-((1H-pyrrolo[2,3-b]pyrid-5-yl)oxy)-N-((7-(((1-(dimethylglycyl)-4-fluoropiperid-4-yl)methyl)amino)-6-nitro-1H-benzo[d]imidazol-4-yl)sulfonyl)-6-(2-(2-(2-isopropylphenyl)pyrrolidin-1-yl)-7-azaspiro[3.5]non-7-yl) nicotinamide], the concentration for half-maximal inhibition (IC50) is less than 10 nM.

Take `CC(C)c1ccccc1[C@@H]1CCCN1C1CC2(CCN(c3cc(Oc4cnc5[nH]ccc5c4)c(C(=O)NS(=O)(=O)c4cc([N+](=O)[O-])c(NCC5(F)CCN(C(=O)CN(C)C)CC5)c5[nH]cnc45)cc3F)CC2)C1` [compound 030, (S)-2-((1H-pyrrolo[2,3-b]pyrid-5-yl)oxy)-N-((7-(((1-(dimethylglycyl)-4-fluoropiperid-4-yl)methyl)amino)-6-nitro-1H-benzo[d]imidazol-4-yl)sulfonyl)-5-fluoro-4-(2-(2-(2-isopropylphenyl)pyrrolidin-1-yl)-7-azaspiro[3.5]non-7-yl)benzamide]: the 50% inhibitory concentration (IC50) was less than 10 nM.
